Measurements reported in patent US7915242B2, “Vitamin D receptor antagonists and their use in treating asthma” (Wisconsin Alumni Research Foundation, priority 2004, dated 2011).
“Also recorded” adds a separate entry of the source.

Tests used:
mouse model of asthma = conditions: Matheu et al., J Allergy Clin Immunol 112:585, 2003; cited from earlier work
Brown Norway rats = experiment: Ovalbumin-induced allergic asthma, BALF cell counts; assay type: in vivo, rat; conditions: aerosolized 500 ng/Kg on Days 14 and 16
Protocol: 6-7 week old Brown Norway male rats were obtained from Harlan Sprague-Dawley (Madison, Wis.) and housed in shoebox cages. Animals were provided a purified rodent diet prepared in-house containing 0.47% calcium and 0.3% phosphorus, and water ad libitum. The diet was supplemented with 1.6 IU vitamin D3/g. Rats were sensitized on Days 0 and 7 with a 1 mL intraperitoneal (I.P.) injection of 1 mg/mL OVA in phosphate-buffered saline (PBS) precipitated 1:1 with Imject Alum (PIERCE, IL). Control animals were sensitized with PBS. The animals were then challenged with aerosolized OVA [1% (w/v)] or aerosolized PBS (control) on Days 14 and 16. This OVA-sensitization and -challenge protocol has been used extensively to generate asthma symptoms in rats. Aerosolized-PBS (200 μL) or aerosolized-OVA (200 μL) was delivered by using the Microsprayer Syringe Model 1C (PennCentury, Philadelphia, Pa.). Aerosolized-vehicle [aqueous solution containing 30% (v/v) propylene glycol and 5% ethanol], or aerosolized-1,25(OH)2D3 (500 ng/Kg of body weight) was administered on Days 14 and 16. There were 4 groups in the study. Group 1: Sensitized and challenged with PBS, no treatment. Group 2: Sensitized and challenged with OVA, no treatment. Group 3: Sensitized and challenged with OVA, vehicle treatment on Days 14 and 16. Group 4: Sensitized and challenged with OVA, 1,25(OH)2D3 treatment on Days 14 and 16. At the end of the study, 17 days after the first I.P. injection, lungs were lavaged five times with 5 mL/each of calcium- and magnesium-free PBS containing 0.05 mM EDTA (ethylenediamine tetraacetic acid). The lavage fluid was centrifuged at 1,000×g for 10 minutes. The supernatant was removed, and the cell pellet was resuspended in 1 mL cold PBS. Total cell counts in bronchoalveolar lavage fluid (BALF) was performed using a hemocytometer. Slides of BALF were prepared by cytospin-2 cytocentrifugation of an aliquot of the cell suspension, and a differential cell count to determine the number of leukocytes was performed after staining with Diff-Quick (IMED, Inc., CA).

BALBc mice = experiment: Asthma model, ovalbumin-sensitized mice; assay type: in vivo, mouse; conditions: preliminary work
Protocol: The fourth test performed on the analogs is treatment using an asthma model. For this test, BALBc mice are injected for 7 days with 10 micrograms of ovalbumin together with alum to sensitize the animals. These are given by intraperitoneal injection and at the end of 7 days, the asthmatic reaction to an inhaled dose of ovalbumin is examined. In this test, the ovalbumin as a 0.2% solution is delivered by nebulizer to the mouse. Air flow measures are carried out as described by Isenberg-Feig et al. in Current Allergy and Asthma Reports, 3:70-78 (2003) which is hereby incorporated by reference in its entirety and for all purposes as if fully set forth herein. Furthermore, the lungs are removed and sectioned for analysis. The degree of invasion of eosinophils into the bronchial tissue is used as a non-subjective measurement of asthmatic response. After the animals are sensitized and given the expected responses to ovalbumin, the animals are subjected to an aerosol that includes either a vitamin D antagonist of the invention or 1α,25-(OH)2D3. After exposure to the vitamin D antagonist of the invention or the 1α,25-(OH)2D3, the animals will be exposed to a nebulized dose of 0.2% ovalbumin. The presence of the antagonist will be found to block the asthmatic response to the inhaled ovalbumin. […]

[1] = biological target: T1, full-length recombinant rat vitamin D receptor (Rattus norvegicus, UniProt P13053); experiment: Vitamin D receptor binding assay, competition with [3H]-1,25(OH)2D3; conditions: relative to 1α,25-dihydroxyvitamin D3; FIG. 1
T1 construct: Full-length recombinant rat receptor is/was expressed in E. coli BL21(DE3) Codon Plus RIL cells; histidine tag (C); made in house; host or cells: E. coli BL21(DE3) Codon Plus RIL
T1 sequence (P13053 1-423): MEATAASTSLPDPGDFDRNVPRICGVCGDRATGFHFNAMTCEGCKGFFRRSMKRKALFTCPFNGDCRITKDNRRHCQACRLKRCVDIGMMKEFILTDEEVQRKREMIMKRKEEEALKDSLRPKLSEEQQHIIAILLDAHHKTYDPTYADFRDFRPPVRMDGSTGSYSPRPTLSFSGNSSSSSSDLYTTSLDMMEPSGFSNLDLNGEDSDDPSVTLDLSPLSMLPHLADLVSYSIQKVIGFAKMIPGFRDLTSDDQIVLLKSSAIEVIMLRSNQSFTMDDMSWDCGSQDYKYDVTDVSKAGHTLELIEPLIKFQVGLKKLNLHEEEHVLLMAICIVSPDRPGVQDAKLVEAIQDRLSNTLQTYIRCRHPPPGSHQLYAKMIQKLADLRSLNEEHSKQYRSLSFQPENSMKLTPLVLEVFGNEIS
From the text: Full-length recombinant rat receptor is/was expressed in E. coli BL21(DE3) Codon Plus RIL cells and purified to homogeneity using two different column chromatography systems. The first system is/was a nickel affinity resin that utilizes the C-terminal histidine tag on this protein. The protein that is/was eluted from this resin is/was further purified using ion exchange chromatography (S-Sepharose Fast Flow). Aliquots of the purified protein are/were quick frozen in liquid nitrogen and stored at −80° C. until use. For use in binding assays, the protein is/was diluted in TEDK50 (50 mM Tris, 1.5 mM EDTA, pH 7.4, 5 mM DTT, 150 mM KCl) with 0.1% Chaps detergent. The receptor protein and ligan concentration is/was optimized such that no more than 20% of the added radiolabeled ligand is/was bound to the receptor.
Unlabeled ligands are/were dissolved in ethanol and the concentrations determined using UV spectrophotometry (1,25(OH)2D3: molar extinction coefficient=18,200 and λmax=265 nm; Analogs: molar extinction coefficient=42,000 and λmax=252 nm). […]
Radiolabeled and unlabeled ligands are/were added to 100 mcl of the diluted protein at a final ethanol concentration of ≦10%, mixed and incubated overnight on ice to reach binding equilibrium. […] Total binding is/was determined from the tubes containing only radiolabeled ligand.

[2] = test system: Human promyelocytic leukemia (HL60) cells; experiment: HL-60 cellular differentiation test (NBT reduction); assay type: cell-based; conditions: relative to 1α,25-dihydroxyvitamin D3; FIGS. 2-3
Protocol: The compounds of the invention are/were dissolved in ethanol and the concentrations are/were determined using UV spectrophotometry. Serial dilutions are/were prepared so that a range of drug concentrations can be tested without changing the final concentration of ethanol (≦0.2%) present in the cell cultures.
Antagonism is/was tested by adding a combination of 1,25(OH)2D3 and the putative antagonist in the same well keeping the final ethanol concentration the same.
Human promyelocytic leukemia (HL60) cells are/were grown in RPMI-1640 medium containing 10% fetal bovine serum. The cells are/were incubated at 37° C. in the presence of 5% CO2.
HL60 cells are/were plated at 1.2×10^5 cells/mL. Eighteen hours after plating, cells in duplicate are/were treated with compound of the invention in ethanol. Four days post-dose, the cells are/were harvested and a nitro blue tetrazolium reduction assay is/was performed (Collins et al., J. Exp. Med. 149, 969-974, Appendix A (1979)). The percentage of differentiated cells is/was determined by counting a total of 200 cells and recording the number that contained intracellular black-blue formazan deposits. Verification of differentiation to monocytic cells is/was determined by measuring phagocytic activity. All drug concentrations are/were tested in duplicate.

[3] = test system: vitamin D 24-hydroxylase (CYP24) promoter luciferase reporter; experiment: Competition for transcription activity, analog plus 1,25(OH)2D3 in the reporter gene assay; assay type: cell-based; conditions: with 1α,25-dihydroxyvitamin D3; FIGS. 5-6
Protocol: Antagonism is/was tested by adding a combination of 1,25(OH)2D3 and the putative antagonist in the same well keeping the ethanol concentration the same.
The third test that is performed is competition for transcription activity. Again, the ROS-17/2.8 osteoblast cells that contain the reporter gene system described above are employed. A dose-response curve is constructed with 1α,25-(OH)2D3 and another 1α,25-(OH)2D3 dose response curve is prepared with increasing concentrations of antagonist or analogs of the invention. Analogs that prevent 1α,25-(OH)2D3-induced transcription, are defined using this technique as either weak agonist or a complete antagonist of the VDR for 1α,25-(OH)2D3.

[4] = test system: vitamin D 24-hydroxylase (CYP24) promoter luciferase reporter; experiment: Reporter gene assay, CYP24 promoter-luciferase in ROS-17/2.8 osteoblast cells; assay type: cell-based; conditions: Ros17/2.8 (bone) cells; FIG. 4
From the text: A reporter gene assay is/was used in which the promoter to the vitamin D 24-hydroxylase, i.e. CYP24 is/was placed in front of a luciferase reporter and is/was permanently transfected into ROS-17/2.8 osteoblast cell cultures as previously described (see Arbour, N. C., T. K. Ross, C. Zierold, J. M. Prahl, and H. F. DeLuca. A Highly Sensitive Method for Large-Scale Measurements of 1,25-Dihydroxyvitamin D. Analyt. Biochem. 255, 148-154, (1998) which is hereby incorporated by reference in its entirety and for all purposes as if fully set forth herein). These cells are/were grown to almost confluency at which time the analog or the standard 1α,25-(OH)2D3 is/was added. After 4 hours of incubation, the cells are/were ruptured and luciferase is/was measured by the methods provided by the Promega Kit. These experiments show the level of activity of the vitamin D analogs of the invention at transcription.
The phrase “RLU” refers to relative luciferase units.

Sprague-Dawley rats [5] = experiment: Bone calcium mobilization (serum calcium); assay type: in vivo, rat; conditions: four ip doses, even at 2,900 pmol/day, FIG. 7
Protocol: (§1) Male, weanling Sprague-Dawley rats are/were placed on Diet 11 (0.47% Ca) diet +AEK for one week followed by Diet 11 (0.02% Ca) +AEK for 3 weeks. The rats are/were then switched to a diet containing 0.47% Ca for one week followed by two weeks on a diet containing 0.02% Ca. Dose administration began during the last week on 0.02% calcium diet. Four consecutive ip doses are/were given approximately 24 hours apart. Twenty-four hours after the last dose, blood is/was collected from the severed neck, and the concentration of serum calcium is/was determined as a measure of bone calcium mobilization. The first 10 cm of the intestine is/was also collected for intestinal calcium transport analysis using the everted gut sac method.
(§2) Antagonism is/was tested by administering a combination of 1,25(OH)2D3 and the putative antagonist to the animal simultaneously.

Sprague-Dawley rats [6] = experiment: Intestinal calcium transport (everted gut sac); assay type: in vivo, rat; conditions: four ip doses, FIG. 8
Protocol: as §1, §2

| Structure (SMILES) | asthma symptoms in a mouse model of asthma (mouse model of asthma) | total cell counts in BALF after OVA challenge (Brown Norway rats; FIG. 9) | number of eosinophils in BALF after OVA challenge (Brown Norway rats; FIG. 11) | number of macrophages in BALF after OVA challenge (Brown Norway rats; versus control (PBS), FIG. 10) | severity of the asthmatic response to ovalbumin (BALBc mice) | binding to the vitamin D receptor (competition with [3H]-1,25-(OH)2-D3) [1] | induction of differentiation of HL-60 cells [2] | antagonistic activity on transcription when administered along with the native hormone [3] | in vitro transcription activity (reporter gene) [4] | bone calcium mobilization (calcemic activity) (Sprague-Dawley rats [5]) | intestinal calcium transport (Sprague-Dawley rats [6]) |
| --- | --- | --- | --- | --- | --- | --- | --- | --- | --- | --- | --- |
| C=C1/C(=C\C=C2/CCC[C@]3(C)[C@@H]([C@H](C)CCCC(C)(C)O)CC[C@@H]23)C[C@@H](O)C[C@@H]1O [1,25(OH)2D3, 1α,25-dihydroxycholecalciferol] | both triggers and exacerbates asthma symptoms | reduced; also recorded: inhibits the OVA (ovalbumin)-mediated increase in total number of cells in BALF | increased OVA-induced eosinophils recruitment; also recorded: increases the OVA-induced eosinophils count in BALF compared to the control | decreased the number of macrophages; also recorded: decreases the number of macrophages compared to the control | increases the severity of the asthmatic response to ovalbumin |  |  |  |  |  |  |
| C=C1[C@H](O)CC(=C/C=C2\CCC[C@]3(C)[C@@H]([C@H](C)/C=C/[C@@H](OCCCC)C4(C(=O)OCCCC)CC4)CC[C@@H]23)C[C@H]1O [CN-67, (22E)-(24R)-24-butoxy-25-carbobutoxy-2-methylene-26,27-cyclo-22-dehydro-1α-hydroxy-19-norvitamin D3] |  |  |  |  |  | significantly less active than 1α,25-dihydroxyvitamin D3 | less active than 1α,25-dihydroxyvitamin D3 | appears to exhibit antagonistic activity | does not appear to be active in causing transcription |  |  |
| C=C1[C@H](O)CC(=C/C=C2\CCC[C@]3(C)[C@@H]([C@H](C)/C=C/[C@@H](O)C4(C(=O)OCCCC)CC4)CC[C@@H]23)C[C@H]1O [OU-72, (22E)-(24R)-25-carbobutoxy-2-methylene-26,27-cyclo-22-dehydro-1α,24-dihydroxy-19-norvitamin D3] |  |  |  |  |  | approximately equal to the native hormone | less active than 1α,25-dihydroxyvitamin D3 | shows antagonistic activity | active in stimulating transcription | no calcemic activity | retain the ability to elevate intestinal calcium transport |
